Earlier results in patent US20060110374A1, “Method to accelerate stem cell recruitment and homing” (priority 2004, published 2006).

Assays:
[1] = patients, intra-coronary injection followed by 2 weeks of subcutaneous administration
EPCs [2] = system: EPCs
EPCs [3] = system: EPCs; remark: listed apart in the source

Substance | coronary collateral flow [1] | numbers of EPCs (EPCs [2]; mice and rabbits) | neovascularization with bone marrow-derived cells (EPCs [2]; mice, corneal neovascularization model) | time to rise of EPC levels in the bloodstream (EPCs [3]; after administration) [h] | mobilization of EPCs into the peripheral circulation (EPCs [3]; animal models, exogenous administration)
GM-CSF: granulocyte macrophage colony stimulating factor | significant increase | Increased numbers | enhanced neovascularization |  | 
VEGF |  |  |  | ≤ 24 | promotes rapid mobilization
